From patent US9814238B2, “Herbicide composition” (ISHIHARA SANGYO KAISHA, LTD., priority 2013, dated 2017)

Key:
Type in all cases: in vivo
[1] = tested on: large crabgrass (Digitaria sanquinalis L.); assay: Test Example 1: foliar treatment of large crabgrass in vat, visual growth inhibition rate; details: foliar treatment at 7-leaf stage, 24th day after treatment
Excerpt: (§1) When the herbicidal activity in a case where two active ingredients are combined, is larger than the simple sum of the respective herbicidal activities of the two active ingredients (the expected activity), it is called a synergistic effect. The activity expected by the combination of two active ingredients can be calculated as follows (Colby S. R., “Weed”, vol. 15, p. 20-22, 1967). E=α+β−(α×β÷100) where α: growth inhibition rate when treated with x (g/ha) of herbicide X,
(§2) β: growth inhibition rate when treated with y (g/ha) of herbicide Y,
(§3) E: growth inhibition rate expected when treated with x (g/ha) of herbicide X and y (g/ha) of herbicide Y.
(§4) That is, when the actual growth inhibition rate (measured value) is larger than the growth inhibition rate by the above calculation (calculated value), the activity by the combination can be regarded as showing a synergistic effect.
Upland field soil was put into a 1/1,000,000 ha vat, and seeds of large crabgrass (Digitaria sanquinalis L.) were sown. When the large crabgrass reached 7-leaf stage, predetermined amounts of an emulsifiable concentrate (EC formulation) containing tiafenacil prepared by a conventional method, water dispersible granules containing flazasulfuron as an active ingredient (WG formulation, tradename: SHIBAGEN DF manufactured by Ishihara Sangyo Kaisha, Ltd.), were diluted with water in an amount corresponding to 300 L/ha, and applied for foliar treatment by a small sprayer.
(§5) On the 24th day after treatment, the state of growth of the large crabgrass was visually observed to determine the growth inhibition rate in accordance with the following evaluation standard. The growth inhibition rate (%) (measured value) and the growth inhibition rate (%) (calculated value) calculated by the Colby's formula are shown in Table 1. Growth inhibition rate (%)=0 (equivalent to the non-treated area) to 100 (complete kill)

[2] = tested on: large crabgrass (Digitaria sanguinalis L.); assay: Test Example 2: soil treatment of large crabgrass in pot, visual growth inhibition rate; details: soil treatment day after sowing, 14th day after treatment
Excerpt: as §1, §2, §3, §4
Upland field soil was put into a 1/500,000 ha pot, and seeds of large crabgrass (Digitaria sanguinalis L.) were sown. […]
as §5, with “14th” for “24th”, “same” for “following”, “standard as in Test Example 1.” for “standard.”, “2.” for “1. Growth inhibition rate (%)=0 (equivalent to the non-treated area) to 100 (complete kill)”

[3] = tested on: common dayflower (Commelina communis L.); assay: Test Example 3: foliar treatment of common dayflower in orchard field, visual growth inhibition rate; details: foliar treatment at height 35 to 40 cm, 23rd day after treatment
Excerpt: as §1, §2, §3, §4
(§6) An orchard field was compartmentalized into 0.5 square meter per test section. When common dayflower (Commelina communis L.) which naturally grew thereafter reached a height of from 35 to 40 cm, predetermined amounts of a microemulsion (ME formulation) containing tiafenacil prepared by a conventional method and WG formulation containing flazasulfuron as an active ingredient (the same as in Test Example 1) were diluted with water (in an amount corresponding to 300 L/ha) containing 0.5 vol % of an agricultural adjuvant (tradename: Destiny HC, manufactured by Winfield Solutions LLC.) and applied for foliar treatment by a small sprayer.
(§7) On the 23rd day after treatment, the state of growth of the common dayflower was visually observed to determine the growth inhibition rate in accordance with the same evaluation standard as in Test Example 1. The growth inhibition rate (%) (measured value) and the growth inhibition rate (%) (calculated value) calculated by the Colby's formula are shown in Table 3.

[4] = tested on: large crabgrass (Digitaria sanguinalis L.); assay: Test Example 4: foliar treatment of large crabgrass in orchard field, visual growth inhibition rate; details: foliar treatment at height 50 to 55 cm, 23rd day after treatment
Excerpt: as §1, §2, §3, §4
as §6, with “large crabgrass (Digitaria sanguinalis” for “common dayflower (Commelina communis”, “50” for “35”, “55” for “40”, “ME formulation” for “a microemulsion (ME formulation)”, “as an active ingredient (the same as in Test Example 3)” for “prepared by a conventional method”
as §7, with “4.” for “3.”

[5] = tested on: common horsetail (Equisetum arvense); assay: Test Example 5: foliar treatment of common horsetail in orchard field, visual growth inhibition rate; details: foliar treatment at height 15 to 20 cm, 23rd day after treatment
Excerpt: as §1, §2, §3, §4
as §6, with “section,” for “section.”, “horsetail (Equisetum arvense)” for “dayflower (Commelina communis L.)”, “15” for “35”, “20” for “40”, “ME formulation” for “a microemulsion (ME formulation)”, “as an active ingredient (the same as in Test Example 3)” for “prepared by a conventional method”
as §7, with “horsetail” for “dayflower”, “5.” for “3.”

SMILES	Growth inhibition rate (%) of large crabgrass, Measured value ([1]; dose 12.5 g/ha) [%]	Growth inhibition rate (%) of large crabgrass, Measured value ([1]; dose 25 g/ha) [%]	Growth inhibition rate (%) of large crabgrass, Measured value ([2]; dose 50 g/ha) [%]	Growth inhibition rate (%) of common dayflower, Measured value ([3]; dose 25 g/ha) [%]	Growth inhibition rate (%) of common dayflower, Measured value ([3]; dose 50 g/ha) [%]	Growth inhibition rate (%) of large crabgrass, Measured value ([4]; dose 25 g/ha) [%]	Growth inhibition rate (%) of large crabgrass, Measured value ([4]; dose 50 g/ha) [%]	Growth inhibition rate (%) of large crabgrass, Measured value ([4]; dose 100 g/ha) [%]	Growth inhibition rate (%) of common horsetail, Measured value ([5]; dose 25 g/ha) [%]	Growth inhibition rate (%) of common horsetail, Measured value ([5]; dose 50 g/ha) [%]	Growth inhibition rate (%) of common horsetail, Measured value ([5]; dose 100 g/ha) [%]	Growth inhibition rate (%) of common horsetail, Measured value ([5]; dose 150 g/ha) [%]	inhibition at 20 g/ha ([1]; Digitaria, dose 20 g/ha, read-out: Growth inhibition rate (%) of large crabgrass, Measured value) [%]	inhibition at 20 g/ha ([2]; Digitaria sanguinalis, dose 20 g/ha, read-out: Growth inhibition rate (%) of large crabgrass, Measured value) [%]	inhibition at 20 g/ha ([3]; Commelina communis, dose 20 g/ha, read-out: Growth inhibition rate (%) of common dayflower, Measured value) [%]	inhibition at 40 g/ha ([3]; Commelina communis, dose 40 g/ha, read-out: Growth inhibition rate (%) of common dayflower, Measured value) [%]	inhibition at 40 g/ha ([4]; Digitaria sanguinalis, dose 40 g/ha, read-out: Growth inhibition rate (%) of large crabgrass, Measured value) [%]	inhibition at 20 g/ha ([5]; Equisetum arvense, dose 20 g/ha, read-out: Growth inhibition rate (%) of common horsetail, Measured value) [%]	inhibition at 40 g/ha ([5]; Equisetum arvense, dose 40 g/ha, read-out: Growth inhibition rate (%) of common horsetail, Measured value) [%]
COC(=O)CCNC(=O)C(C)Sc1cc(-n2c(=O)cc(C(F)(F)F)n(C)c2=O)c(F)cc1Cl (racemic) [Tiafenacil, methyl 3-((2RS)-2-{2-chloro-4-fluoro-5-[1,2,3,6-tetrahydro-3-methyl-2,6-dioxo-4-(trifluoromethyl)pyrimidin-1(6H)-yl]phenylthio}propionamido]propionate]	20	30	65	50	60	5	5	8	63	63	68	55	–	–	–	–	–	–	–
COc1cc(OC)nc(NC(=O)NS(=O)(=O)c2ncccc2C(F)(F)F)n1 [Flazasulfuron, 1-(4,6-dimethoxypyrimidin-2-yl)-3-(3-trifluoromethyl-2-pyridylsulfonyl)urea]	–	–	–	–	–	–	–	–	–	–	–	–	40	60	45	40	33	55	53
